Test systems include ACHN renal; HCT-15 colon; UACC-257 melanoma; HT29 colon; IGROV1 ovarian; T-47D breast; EKVX NSCLC; HS 578T breast; HOP-92 NSCLC.
Assay in all cases: NCI tumour cell line growth inhibition, 48 h

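Five compound concentrations were applied to cells in 96-well plates for 48 hours; endpoints were derived by simple linear interpolation of the resulting dose-response curve. At the GI50, growth is halved. TGI denotes the concentration required for complete inhibition of growth.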

For the compound `C[C@]12CC[C@H]3[C@@H](CCC4=C/C(=N/OCCN5CCCCC5)CC[C@@]43C)[C@@H]1CC[C@@H]2O`, the TGI in the assay on ACHN renal was 51.6 µM; in the assay with HCT-15 colon it was 21.2 µM; in the assay on UACC-257 melanoma, 37.3 µM; with HT29 colon, 15.2 µM; in the assay on IGROV1 ovarian it was over 100 µM; in the assay with T-47D breast, over 100 µM. For the same compound, the TGI with EKVX NSCLC was over 100 µM.
`CC(CSc1nc2c(c(=N)n1-c1ccccc1)c(=S)n(-c1ccccc1)c(=S)n2-c1ccccc1)CN(C)C` (centres undefined): the TGI with ACHN renal is 3.15 µM; in the assay on HCT-15 colon, 3.17 µM; with HS 578T breast, over 28.7 µM; with UACC-257 melanoma, 3.43 µM; with HOP-92 NSCLC, 2.97 µM; with IGROV1 ovarian, 2.79 µM. Besides, in the assay with EKVX NSCLC, the TGI was 3.12 µM.
Consider `CCOC(=O)/C(=C/c1cn(C(C)=O)c2ccccc12)P(=O)(OC)OC`, for which the TGI is over 100 µM in the assay with ACHN renal; over 100 µM in the assay with HCT-15 colon; over 100 µM in the assay on HS 578T breast; 41.5 µM in the assay on UACC-257 melanoma; over 100 µM with HOP-92 NSCLC; over 100 µM with HT29 colon. The TGI was over 100 µM with IGROV1 ovarian and 60.5 µM in the assay with T-47D breast.
Take `COc1cc(/C=C2\C(=O)N(c3ccc(Cl)cc3)C(c3ccccc3)S2(=O)=O)cc(OC)c1OC` (centres undefined): the TGI in the assay on ACHN renal, in the assay on HCT-15 colon, with HS 578T breast, with UACC-257 melanoma, with HOP-92 NSCLC and with HT29 colon was over 100 µM throughout. For the same compound, the TGI in the assay with T-47D breast and in the assay with EKVX NSCLC was over 100 µM throughout.
For the compound `O=C(Nc1nnc(-c2ccccc2)o1)C(SC(=S)N1CCCC1)c1ccccc1` (centres undefined), the TGI in the assay on ACHN renal, in the assay with HCT-15 colon, with HS 578T breast, with UACC-257 melanoma, in the assay on HT29 colon and in the assay on IGROV1 ovarian was over 100 µM in each case. Also, the values for the TGI in the assay on T-47D breast and with EKVX NSCLC were over 100 µM and 68 µM, respectively.
In the case of `Cc1cc(C)n(C(=CC(=O)C(Cl)Cl)n2nc(C)cc2C)n1`, the TGI was 22.3 µM in the assay on ACHN renal; 10.7 µM in the assay on HCT-15 colon; over 100 µM with HS 578T breast; 4.97 µM with UACC-257 melanoma; 24.2 µM in the assay with HOP-92 NSCLC; 30.4 µM in the assay on IGROV1 ovarian. Also, in the assay with T-47D breast, the TGI was determined as 28.6 µM.
As for `O=C(CCCCCCCCC(=O)N1C(=O)CC(=O)N(c2ccc(Cl)cc2)C1=S)N1C(=O)CC(=O)N(c2ccc(Cl)cc2)C1=S`, the TGI in the assay on ACHN renal, in the assay on HCT-15 colon, in the assay on HS 578T breast, in the assay with UACC-257 melanoma, in the assay on HOP-92 NSCLC and in the assay with HT29 colon was over 100 µM throughout. The TGI in the assay with T-47D breast and with EKVX NSCLC was over 100 µM throughout.
With `FC(F)(Sc1ncccn1)c1nc2ccccc2o1`, the TGI in the assay with ACHN renal, in the assay with HCT-15 colon, with UACC-257 melanoma, in the assay with HOP-92 NSCLC, in the assay with HT29 colon and in the assay with IGROV1 ovarian was over 100 µM in each case. The same compound gave a TGI in the assay on T-47D breast of over 100 µM.
`CCOC(=O)CC1C(C(=O)OCC)=Cn2c([nH]c3cccc4cccc2c43)=C1C(=O)OCC` (centres undefined): the TGI with ACHN renal, in the assay with HCT-15 colon, in the assay on UACC-257 melanoma, in the assay on HOP-92 NSCLC, in the assay on HT29 colon and in the assay with IGROV1 ovarian was over 100 µM in each case. The TGI with T-47D breast and in the assay with EKVX NSCLC was over 100 µM throughout.
Regarding `c1ccc(CN2CCC(CNc3ncnc4ccccc34)C2)cc1` (centres undefined), the TGI with ACHN renal, in the assay on HCT-15 colon, with HS 578T breast, with HOP-92 NSCLC, with HT29 colon and with IGROV1 ovarian was over 100 µM each time. Besides, the TGI in the assay on T-47D breast and with EKVX NSCLC was over 100 µM in each case.
In the case of `Cc1cc(C)n(C(C)(C(=O)Cc2ccccc2)n2nc(C)cc2C)n1`, the TGI in the assay on ACHN renal, with HCT-15 colon, in the assay on HS 578T breast, in the assay with HOP-92 NSCLC, with HT29 colon and in the assay on IGROV1 ovarian was over 100 µM throughout. The TGI with T-47D breast and in the assay on EKVX NSCLC was over 100 µM each time.
As to `CCN(CCCl)c1cc(CN(C)C)cc(NC(=O)c2ccc(C(=O)Nc3cccc(N(CCCl)NN)c3)cc2)c1`, the TGI stood at 0.233 µM with ACHN renal; 4.89 µM with HCT-15 colon; 0.0711 µM with HS 578T breast; 0.707 µM with HOP-92 NSCLC; 0.0409 µM in the assay on HT29 colon; 0.078 µM in the assay on IGROV1 ovarian.
Consider `CN(CC(=O)O)c1ncc2c(n1)-c1ccccc1CC2`, for which the TGI with ACHN renal, with HCT-15 colon, with HS 578T breast, with UACC-257 melanoma, with HOP-92 NSCLC and with HT29 colon was over 100 µM each time. Also, the TGI in the assay on IGROV1 ovarian and with EKVX NSCLC was over 100 µM each time.
With `Nc1c(-c2ccccc2)c2ccc([N+](=O)[O-])cc2c(=O)n1-c1cccc(C(=O)O)c1`, the TGI with ACHN renal, in the assay with HCT-15 colon, with HS 578T breast, with UACC-257 melanoma, in the assay on HT29 colon and in the assay on IGROV1 ovarian was over 100 µM throughout. Moreover, the TGI in the assay on T-47D breast and in the assay with EKVX NSCLC was over 100 µM throughout.
In the case of `CCOC(=O)CCC(NC(=O)c1ccc(NCc2ccc3nc(OC)c(OC)nc3c2)c2ccccc12)C(=O)OCC` (centres undefined), the TGI with ACHN renal is over 100 µM; in the assay on HCT-15 colon it was over 100 µM; with UACC-257 melanoma it was over 100 µM; with HOP-92 NSCLC, 97.7 µM; in the assay on HT29 colon it was over 100 µM; in the assay with IGROV1 ovarian, over 100 µM. Moreover, the TGI with T-47D breast and in the assay with EKVX NSCLC was over 100 µM throughout.
For `COc1ccc(C2CC(c3cccc(Nc4ccncc4)c3)=NN2c2ccccc2)cc1` (centres undefined), the GI50 with ACHN renal is 1.81 µM; in the assay on HCT-15 colon, 1.74 µM; in the assay with HS 578T breast it was 1.82 µM; with UACC-257 melanoma, 2 µM; in the assay on HT29 colon, 2.47 µM; in the assay on IGROV1 ovarian, 1.81 µM. The GI50 is 2.3 µM with T-47D breast and 2.73 µM in the assay on EKVX NSCLC. In addition, the TGI in the assay on ACHN renal is 3.28 µM; in the assay on HCT-15 colon it was 3.44 µM; in the assay on HS 578T breast it was 3.87 µM; with UACC-257 melanoma it was 4.17 µM; with HT29 colon it was 6.87 µM; in the assay with IGROV1 ovarian, 3.51 µM. The TGI in the assay with T-47D breast came to 5.83 µM; in the assay with EKVX NSCLC, 10.2 µM.
Regarding `CC(C)(C)C(=O)C(N)C(=O)C(C)(C)C`, the TGI with ACHN renal, in the assay on HCT-15 colon, in the assay on HS 578T breast, in the assay on UACC-257 melanoma, in the assay with HOP-92 NSCLC and with T-47D breast was over 100 µM in each case.
As for `O=C(O)C1C2OC(C(Br)C2Br)C1C(=O)O` (centres undefined), the TGI with ACHN renal, in the assay on HCT-15 colon, with HS 578T breast, in the assay on UACC-257 melanoma, in the assay with HT29 colon and in the assay on IGROV1 ovarian was over 100 µM in each case. The TGI in the assay on T-47D breast and with EKVX NSCLC was over 100 µM each time.
On to `Cc1cc(Br)c(O)c(-c2cscn2)c1`, for which the TGI in the assay with ACHN renal was 36.6 µM; in the assay with HCT-15 colon, 18.4 µM; in the assay with HS 578T breast it was 52.4 µM; with HOP-92 NSCLC, 43.1 µM; in the assay with HT29 colon, over 100 µM; with IGROV1 ovarian it was 56.7 µM. Also, the TGI with EKVX NSCLC came to 96.1 µM.
`CCCCCCCCCCCCCCCC[N+](C)(C)CCl`: the TGI worked out at 8.36 µM in the assay on ACHN renal; 20.9 µM with HCT-15 colon; 5.26 µM in the assay with HS 578T breast; 21.1 µM with UACC-257 melanoma; 3.82 µM in the assay on HT29 colon; 1.31 µM in the assay with IGROV1 ovarian. In addition, the TGI was determined as 23.6 µM in the assay with T-47D breast and 22.8 µM in the assay on EKVX NSCLC.
For the compound `C[N+](C)([O-])C12CC3CC(CC(C3)C1)C2`, the TGI in the assay with ACHN renal, with HCT-15 colon, in the assay with HS 578T breast, with UACC-257 melanoma, in the assay on HT29 colon and with IGROV1 ovarian was over 100 µM throughout. Further, the results for the TGI in the assay with T-47D breast and in the assay with EKVX NSCLC were 85.7 µM and 74.3 µM, respectively.
As to `O=C(CN1CCCC1)Nc1ccc2c(c1)C1Oc3ccccc3CC1CO2` (centres undefined), the TGI in the assay with HCT-15 colon was 47.2 µM; with UACC-257 melanoma, 44.3 µM; in the assay with HOP-92 NSCLC it was over 100 µM; in the assay with IGROV1 ovarian it was over 100 µM; in the assay on T-47D breast, over 100 µM; in the assay on EKVX NSCLC, over 100 µM.
Take `N#Cc1nc(-c2ccsc2)oc1N`: the TGI in the assay on ACHN renal, in the assay with HCT-15 colon, in the assay with HS 578T breast, with UACC-257 melanoma, with HOP-92 NSCLC and in the assay with HT29 colon was over 100 µM in each case. The TGI in the assay on IGROV1 ovarian and in the assay with EKVX NSCLC was over 100 µM each time.
For the compound `COC1=C(OC)C(=O)C(Cc2c(-c3ccccc3)nc3sc(Cl)cn23)=C(C)C1=O`, the TGI in the assay with ACHN renal was determined as 30.7 µM; in the assay with HCT-15 colon, 36.1 µM; in the assay on HS 578T breast, 44.3 µM; in the assay on UACC-257 melanoma, 29.9 µM; in the assay on HT29 colon it was 41.7 µM; in the assay with IGROV1 ovarian it was 29.9 µM. In addition, the figures for the TGI in the assay with T-47D breast and in the assay with EKVX NSCLC were over 100 µM and 41.6 µM, respectively.

These data come from PubChem BioAssay (NCI).
